According to patent US9023855B2, “Compounds” (Chiesi Farmaceutici S.p.A., priority 2011, dated 2015):

biological target: T1, human neutrophil elastase (HNE) (Homo sapiens, UniProt P08246); assay: HNE enzyme assay (fluorogenic peptide substrate MeOSuc-Ala-Ala-Pro-Val-AMC); type: biochemical; conditions: human leukocyte elastase, substrate 100 μM, 25° C., 30 minutes, at least two separate experiments; read-out: HNE inhibition (IC50 values)
T1 construct: purchased Sigma E8140
T1 sequence (P08246 30-267): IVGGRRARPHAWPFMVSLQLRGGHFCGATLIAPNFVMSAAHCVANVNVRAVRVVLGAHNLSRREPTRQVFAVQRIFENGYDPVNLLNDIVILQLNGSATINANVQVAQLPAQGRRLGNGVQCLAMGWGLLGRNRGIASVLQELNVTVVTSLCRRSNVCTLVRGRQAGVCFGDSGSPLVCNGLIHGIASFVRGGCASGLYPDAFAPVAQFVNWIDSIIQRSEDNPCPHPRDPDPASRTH
Experimental: Compounds of this invention were tested for potency in a human neutrophil elastase (HNE) enzyme activity assay.
Assays were performed in 96-well plates in a total assay volume of 100 μl. The final concentration of elastase enzyme (human leukocyte elastase, Sigma E8140) was 0.0036 units/well […]. The peptide substrate (MeOSuc-Ala-Ala-Pro-Val-AMC, Calbiochem #324740) was used at a final concentration of 100 μM. The final concentration of DMSO was 1% in the assay buffer (0.05M Tris.HCl, 0.1M NaCl, 0.1M CaCl2, 0.0005% brij-35, pH 7.5). The enzymatic reaction was started by addition of the enzyme and incubated at 25° C. for 30 minutes. After incubation, the reaction was stopped by addition of soybean trypsin inhibitor (Sigma T9003) at a final concentration of 50 μg/well. Fluorescence was measured using a Molecular Devices fluorescence plate reader using 380 nm excitation and 460 nm emission wavelengths.
A dose response to each compound was performed, and the effect of the compound in each experiment was expressed as a percentage inhibition of the control enzyme fluorescence. Dose response curves were plotted and compound potency (IC50) was determined. Compounds were tested in at least two separate experiments.

`COC(=O)C1=C(C)N(c2cccc(C(F)(F)F)c2)c2nn(Cc3ccc(S(C)(=O)=O)cc3)c(=O)n2[C@@H]1c1ccc(C#N)cc1` [Example 17, (R)-5-(4-Cyano-phenyl)-2-(4-methanesulfonyl-benzyl)-7-methyl-3-oxo-8-(3-trifluoromethyl-phenyl)-2,3,5,8-tetrahydro-[1,2,4]triazolo[4,3-a]pyrimidine-6-carboxylic acid methyl ester] and `COC(=O)C1=C(C)N(c2cccc(C(F)(F)F)c2)c2nn(-c3ccc(S(C)(=O)=O)cc3)c(=O)n2C1c1ccc(C#N)cc1` (centres unmarked) [Example 15, 5-(4-Cyano-phenyl)-2-(4-methanesulfonyl-phenyl)-7-methyl-3-oxo-8-(3-trifluoromethyl-phenyl)-2,3,5,8-tetrahydro-[1,2,4]triazolo[4,3-a]pyrimidine-6-carboxylic acid methyl ester] cannot be ordered by IC50: less than 20 nM for the first, less than 20 nM for the second.

`COC(=O)C1=C(C)N(c2cccc(C(F)(F)F)c2)c2nn(Cc3ccc(CN(C)C)cc3)c(=O)n2C1c1ccc(C#N)cc1` (centres unmarked) [Example 21, 5-(4-Cyano-phenyl)-2-(4-dimethylaminomethyl-benzyl)-7-methyl-3-oxo-8-(3-trifluoromethyl-phenyl)-2,3,5,8-tetrahydro-[1,2,4]triazolo[4,3-a]pyrimidine-6-carboxylic acid methyl ester] and `COC(=O)C1=C(C)N(c2cccc(C(F)(F)F)c2)c2nn(Cc3ccc(C[N+](C)(C)C)cc3)c(=O)n2C1c1ccc(C#N)cc1` (centres unmarked) [Example 22, {4-[5-(4-Cyano-phenyl)-6-methoxycarbonyl-7-methyl-3-oxo-8-(3-trifluoromethyl-phenyl)-5,8-dihydro-[1,2,4]triazolo[4,3-a]pyrimidin-2-ylmethyl]-benzyl}-trimethyl-ammonium bromide] cannot be ordered by IC50: less than 20 nM for the first, less than 20 nM for the second.

First: COC(=O)C1=C(C)N(c2cccc(C(F)(F)F)c2)c2nn(Cc3ccccc3)c(=O)n2C1c1ccc(C#N)cc1 (centres unmarked) [Example 4, 2-Benzyl-5-(4-cyanophenyl)-7-methyl-3-oxo-8-(3-trifluoromethyl-phenyl)-2,3,5,8-tetrahydro-[1,2,4]triazolo[4,3-a]pyrimidine-6-carboxylic acid methyl ester]
Second: C=CCn1nc2n(c1=O)C(c1ccc(C#N)cc1)C(C(=O)OC)=C(C)N2c1cccc(C(F)(F)F)c1 (centres unmarked) [Example 5, 2-Allyl-5-(4-cyanophenyl)-7-methyl-3-oxo-8-(3-trifluoromethyl-phenyl)-2,3,5,8-tetrahydro-[1,2,4]triazolo[4,3-a]pyrimidine-6-carboxylic acid methyl ester]
The IC50 of the first is higher: 20 to 100 nM for the first, less than 20 nM for the second. The second is the more potent here.

`COC(=O)C1=C(C)N(c2cccc(C(F)(F)F)c2)c2nn(CC(=O)N(C)CCC[N+](C)(C)C)c(=O)n2C1c1ccc(C#N)cc1` (centres unmarked) [Example 28, [3-({2-[5-(4-Cyano-phenyl)-6-methoxycarbonyl-7-methyl-3-oxo-8-(3-trifluoromethyl-phenyl)-5,8-dihydro-[1,2,4]triazolo[4,3-a]pyrimidin-2-yl]-acetyl}-methyl-amino)propyl]-trimethyl-ammonium; bromide] and `COC(=O)C1=C(C)N(c2cccc(C(F)(F)F)c2)c2nn(CC(=O)N(C)CCCC[N+](C)(C)C)c(=O)n2C1c1ccc(C#N)cc1` (centres unmarked) [Example 31, [4-({2-[5-(4-Cyano-phenyl)-6-methoxycarbonyl-7-methyl-3-oxo-8-(3-trifluoromethyl-phenyl)-5,8-dihydro-[1,2,4]triazolo[4,3-a]pyrimidin-2-yl]-acetyl}-methyl-amino)-butyl]-trimethylammonium bromide] cannot be ordered by IC50: less than 20 nM for the first, less than 20 nM for the second.

`CC1=C(C(=O)O)C(c2ccc(C#N)cc2)n2c(n[nH]c2=O)N1c1cccc(C(F)(F)F)c1` (centres unmarked) [Example 9, 5-(4-Cyano-phenyl)-7-methyl-3-oxo-8-(3-trifluoromethyl-phenyl)-2,3,5,8-tetrahydro-[1,2,4]triazolo[4,3-a]pyrimidine-6-carboxylic acid] and `COC(=O)C1=C(C)N(c2cccc(C(F)(F)F)c2)c2n[nH]c(=O)n2C1c1ccc(C#N)cc1` (centres unmarked) [Example 1, 5-(4-Cyanophenyl)-7-methyl-3-oxo-8-(3-trifluoromethylphenyl)-2,3,5,8-tetrahydro-[1,2,4]triazolo[4,3-a]pyrimidine-6-carboxylic acid methyl ester] cannot be ordered by IC50: less than 20 nM for the first, less than 20 nM for the second.

`COC(=O)C1=C(C)N(c2cccc(C(F)(F)F)c2)c2nn(CCCS(=O)(=O)CCC[N+](C)(C)C)c(=O)n2[C@@H]1c1ccc(C#N)cc1` [Example 38, (R)-(3-{3-[5-(4-Cyano-phenyl)-6-methoxycarbonyl-7-methyl-3-oxo-8-(3-trifluoromethyl-phenyl)-5,8-dihydro-[1,2,4]triazolo[4,3-a]pyrimidin-2-yl]-propane-1-sulfonyl}-propyl)-trimethylammonium chloride] and `COC(=O)C1=C(C)N(c2cccc(C(F)(F)F)c2)c2nn(CCCS(=O)(=O)CCC[N+](C)(C)C)c(=O)n2C1c1ccc(C#N)cc1` (centres unmarked) [Example 37, (3-{3-[5-(4-Cyano-phenyl)-6-methoxycarbonyl-7-methyl-3-oxo-8-(3-trifluoromethyl-phenyl)-5,8-dihydro-[1,2,4]triazolo[4,3-a]pyrimidin-2-yl]-propane-1-sulfonyl}-propyl)-trimethylammonium toluene-4-sulfonate] cannot be ordered by IC50: less than 20 nM for the first, less than 20 nM for the second.

`COC(=O)C1=C(C)N(c2cccc(C(F)(F)F)c2)c2nn(CC(=O)N(C)CCCCCN(C)C)c(=O)n2[C@@H]1c1ccc(C#N)cc1` [Example 33, (R)-5-(4-Cyano-phenyl)-2-{[(5-dimethylamino-pentyl)-methyl-carbamoyl]-methyl}-7-methyl-3-oxo-8-(3-trifluoromethyl-phenyl)-2,3,5,8-tetrahydro-[1,2,4]triazolo[4,3-a]pyrimidine-6-carboxylic acid methyl ester] and `COC(=O)C1=C(C)N(c2cccc(C(F)(F)F)c2)c2nn(CC(=O)N(C)CCCCCN(C)C)c(=O)n2C1c1ccc(C#N)cc1` (centres unmarked) [Example 30, 5-(4-Cyano-phenyl)-2-{[(5-dimethylamino-pentyl)-methyl-carbamoyl]-methyl}-7-methyl-3-oxo-8-(3-trifluoromethyl-phenyl)-2,3,5,8-tetrahydro-[1,2,4]triazolo[4,3-a]pyrimidine-6-carboxylic acid methyl ester] cannot be ordered by IC50: less than 20 nM for the first, less than 20 nM for the second.

`COC(=O)C1=C(C)N(c2cccc(C(F)(F)F)c2)c2nn(CC(=O)N(C)CCCCC[N+](C)(C)C)c(=O)n2C1c1ccc(C#N)cc1` (centres unmarked) [Example 32, [5-({2-[5-(4-Cyano-phenyl)-6-methoxycarbonyl-7-methyl-3-oxo-8-(3-trifluoromethyl-phenyl)-5,8-dihydro-[1,2,4]triazolo[4,3-a]pyrimidin-2-yl]-acetyl}-methyl-amino)pentyl]-trimethyl-ammonium; bromide] and `COC(=O)C1=C(C)N(c2cccc(C(F)(F)F)c2)c2nn(CC(=O)N(C)CCCCN(C)C)c(=O)n2C1c1ccc(C#N)cc1` (centres unmarked) [Example 29, 5-(4-Cyano-phenyl)-2-{[(4-dimethylamino-butyl)-methyl-carbamoyl]-methyl}-7-methyl-3-oxo-8-(3-trifluoromethyl-phenyl)-2,3,5,8-tetrahydro-[1,2,4]triazolo[4,3-a]pyrimidine-6-carboxylic acid methyl ester] cannot be ordered by IC50: less than 20 nM for the first, less than 20 nM for the second.

`CC1=C(C(=O)OCCN(C)C)C(c2ccc(C#N)cc2)n2c(n[nH]c2=O)N1c1cccc(C(F)(F)F)c1` (centres unmarked) [Example 10, 5-(4-Cyano-phenyl)-7-methyl-3-oxo-8-(3-trifluoromethyl-phenyl)-2,3,5,8-tetrahydro-[1,2,4]triazolo[4,3-a]pyrimidine-6-carboxylic acid 2-dimethylamino-ethyl ester] and `CC1=C(C(=O)OCCCN(C)C)C(c2ccc(C#N)cc2)n2c(n[nH]c2=O)N1c1cccc(C(F)(F)F)c1` (centres unmarked) [Example 11, 5-(4-Cyano-phenyl)-7-methyl-3-oxo-8-(3-trifluoromethyl-phenyl)-2,3,5,8-tetrahydro-[1,2,4]triazolo[4,3-a]pyrimidine-6-carboxylic acid 3-dimethylamino-propyl ester] cannot be ordered by IC50: less than 20 nM for the first, less than 20 nM for the second.

`COC(=O)C1=C(C)N(c2cccc(C(F)(F)F)c2)c2n[nH]c(=O)n2C1c1ccc(C#N)cc1S(C)(=O)=O` (centres unmarked) [Example 13, 5-(4-Cyano-2-methanesulfonyl-phenyl)-7-methyl-3-oxo-8-(3-trifluoromethyl-phenyl)-2,3,5,8-tetrahydro-[1,2,4]triazolo[4,3-a]pyrimidine-6-carboxylic acid methyl ester] and `COC(=O)C1=C(C)N(c2cccc(C(F)(F)F)c2)c2nn(CC(=O)N(C)CCCN(C)C)c(=O)n2C1c1ccc(C#N)cc1` (centres unmarked) [Example 26, 5-(4-Cyano-phenyl)-2-{[(3-dimethylamino-propyl)-methyl-carbamoyl]-methyl}-7-methyl-3-oxo-8-(3-trifluoromethyl-phenyl)-2,3,5,8-tetrahydro-[1,2,4]triazolo[4,3-a]pyrimidine-6-carboxylic acid methyl ester] cannot be ordered by IC50: less than 20 nM for the first, less than 20 nM for the second.
